One data set concerns the target HDAC1 (Homo sapiens (Human), UniProt Q13547). Briefly: HDAC activity inhibition assay, HDAC1. The format is biochemical. The settings on record: Table 1; 2 hours pre-incubation. As for the experimental part:
(§1) The HDAC activity inhibition assay was performed as follows to determine the ability of a test compound to inhibit HDAC enzymatic activity. […] Following pre-incubation, Fluor-de-Lys™ substrate (Enzo Life Sciences, Plymouth Meeting, Pa., BML-KI104-0050) was added to a final concentration of 10 μM and plates were further incubated for 30 minutes at room temperature. […] IC50 values were calculated by using a sigmoidal dose-response (variable slope) equation in GraphPad Prism® 5 for Windows (GraphPad Software, La Jolla, Calif.).

For another data set, the target named is HDAC2 (Homo sapiens (Human), UniProt Q92769). Briefly: HDAC activity inhibition assay, HDAC2. The format is biochemical. As for the experimental part:
as §1

Another data set deals with HDAC3/NcoR2 (Homo sapiens (Human), UniProt O15379). Put plainly: HDAC activity inhibition assay, HDAC3/NcoR2. The format is biochemical. As for the experimental part: as §1
Data set [1] is described as follows: Acid stability determination. The data set is classed as physicochemical. The following applies: 100 μM in 0.01 M HCl, 50° C. As for the experimental part:
A 100 μM solution of test compound was prepared by dilution of a 10 mM DMSO stock solution in a 0.01 M solution of HCl in deionized water. Immediately after mixing, an aliquot (100 μL) was sampled and analyzed by HPLC/UV. The area under the compound peak was determined and used as the time zero reference point. The remainder of the acid sample was incubated at 50° C. and samples were taken after 2, 4, and 24 hours of incubation. On a few occasions, samples were taken at 30 rather than 24 hours. These were analyzed by the same HPLC/UV method and the area of the peak corresponding to the test compound was measured. Percent remaining at a given time point was then calculated as the ratio of the area under the peak after incubation to that at time zero times 100. In those cases where a 30 hour time point was recorded, the percent remaining at 24 hours was obtained by interpolation of the percent remaining versus time curve assuming a unimolecular process, i.e. a monoexponential decay. Percent remaining after 24 hours incubation are presented in Tables 2 and 4 below, where A corresponds to more than 60%, B is between 40 and 60%, C covers 20 to 40% and D means less than 20%.

[2] abbreviates: Table 1, 2 hours pre-incubation.

Read-outs that look alike come from different tables or passages of the source.

HDAC2, sequence (Q92769 whole entry): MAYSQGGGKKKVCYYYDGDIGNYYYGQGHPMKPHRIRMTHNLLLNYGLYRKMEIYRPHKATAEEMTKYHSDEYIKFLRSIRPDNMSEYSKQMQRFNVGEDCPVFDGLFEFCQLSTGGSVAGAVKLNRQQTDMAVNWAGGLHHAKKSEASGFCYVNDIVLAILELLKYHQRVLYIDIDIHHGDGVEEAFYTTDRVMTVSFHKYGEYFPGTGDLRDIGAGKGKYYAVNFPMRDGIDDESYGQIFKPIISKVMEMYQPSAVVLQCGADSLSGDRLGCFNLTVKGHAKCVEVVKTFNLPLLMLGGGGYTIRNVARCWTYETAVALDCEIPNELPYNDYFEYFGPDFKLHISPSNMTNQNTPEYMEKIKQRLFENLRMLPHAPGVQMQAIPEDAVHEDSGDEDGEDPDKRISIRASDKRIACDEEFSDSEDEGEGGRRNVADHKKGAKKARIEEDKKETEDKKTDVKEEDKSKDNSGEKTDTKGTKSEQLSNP
HDAC3/NcoR2, sequence (O15379 whole entry): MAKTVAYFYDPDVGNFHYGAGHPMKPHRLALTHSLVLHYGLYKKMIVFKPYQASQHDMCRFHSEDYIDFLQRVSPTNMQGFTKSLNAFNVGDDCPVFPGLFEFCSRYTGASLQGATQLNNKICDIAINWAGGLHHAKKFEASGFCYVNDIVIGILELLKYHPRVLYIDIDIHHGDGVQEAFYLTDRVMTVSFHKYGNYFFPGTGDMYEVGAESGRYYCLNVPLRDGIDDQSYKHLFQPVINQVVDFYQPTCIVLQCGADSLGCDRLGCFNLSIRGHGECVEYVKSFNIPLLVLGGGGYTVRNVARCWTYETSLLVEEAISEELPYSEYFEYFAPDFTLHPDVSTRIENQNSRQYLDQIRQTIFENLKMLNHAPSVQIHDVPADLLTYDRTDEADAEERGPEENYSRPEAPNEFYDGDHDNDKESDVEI
HDAC3/NcoR2, sequence (Q9Y618 395-489 partner): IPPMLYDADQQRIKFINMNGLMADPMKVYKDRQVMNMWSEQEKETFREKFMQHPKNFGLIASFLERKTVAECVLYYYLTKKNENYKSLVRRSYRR
HDAC1, sequence (Q13547 whole entry): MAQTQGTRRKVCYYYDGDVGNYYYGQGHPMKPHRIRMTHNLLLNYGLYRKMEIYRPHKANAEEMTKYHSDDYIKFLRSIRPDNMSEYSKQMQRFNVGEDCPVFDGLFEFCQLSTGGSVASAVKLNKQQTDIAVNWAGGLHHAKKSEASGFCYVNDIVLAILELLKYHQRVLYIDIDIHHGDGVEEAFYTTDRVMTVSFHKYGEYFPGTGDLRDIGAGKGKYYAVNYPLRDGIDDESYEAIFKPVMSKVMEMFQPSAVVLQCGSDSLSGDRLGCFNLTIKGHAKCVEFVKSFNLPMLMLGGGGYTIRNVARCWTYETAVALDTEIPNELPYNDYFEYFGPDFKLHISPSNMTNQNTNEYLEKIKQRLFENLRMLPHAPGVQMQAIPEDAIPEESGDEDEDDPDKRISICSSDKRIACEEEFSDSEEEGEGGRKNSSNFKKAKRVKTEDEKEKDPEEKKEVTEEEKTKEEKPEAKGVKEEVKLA

Take `Nc1ccccc1NC(=O)/C=C/c1cnn(CCCOc2ccccc2)c1` [D15]: the half-inhibitory concentration (IC50) against HDAC1, against HDAC2 (setting [2]) and at HDAC3/NcoR2 (setting [2]) was less than 1 µM throughout.

With `Cn1ccc(/C=C/C(=O)Nc2ccccc2N)n1` [A7], the IC50 at HDAC1 is 1 to 5 µM; against HDAC2 (setting [2]), 1 to 5 µM; at HDAC3/NcoR2 (setting [2]), less than 1 µM.

As for `Nc1ccccc1NC(=O)/C=C/c1cn2ccccc2n1` [A9], the IC50 against HDAC1 is 1 to 5 µM; on HDAC2 (setting [2]), 1 to 5 µM; at HDAC3/NcoR2 (setting [2]) it was less than 1 µM.

`Cc1cc(/C=C/C(=O)Nc2ccccc2N)on1` [A5]: the results for the concentration for half-maximal inhibition (IC50) against HDAC1, at HDAC2 (setting [2]) and against HDAC3/NcoR2 (setting [2]) were 10 to 20 µM, 10 to 20 µM and less than 1 µM, respectively. The “acid stability (percent remaining after 24 hours incubation)” value in data set [1] was “B (B is between 40 and 60%)”.

For the compound `Nc1ccccc1NC(=O)/C=C/c1cnn(CCOc2ccc(F)cc2)c1` [B6], the IC50 against HDAC1, against HDAC2 (setting [2]) and at HDAC3/NcoR2 (setting [2]) was less than 1 µM in each case.

`Nc1ccccc1NC(=O)/C=C/c1cnn(CC2CC2)c1` [B1]: the IC50 is 1 to 5 µM against HDAC1, 5 to 10 µM on HDAC2 (setting [2]) and less than 1 µM on HDAC3/NcoR2 (setting [2]).

With `Nc1ccccc1NC(=O)/C=C/c1cnn(CCOc2cc(F)cc(F)c2)c1` [B3, (E)-N-(2-aminophenyl)-3-(1-(2-(3,5-difluorophenoxy)ethyl)-1H-pyrazol-4-yl)acrylamide], the half-inhibitory concentration (IC50) at HDAC1, on HDAC2 (setting [2]) and against HDAC3/NcoR2 (setting [2]) was less than 1 µM in each case.

Consider `Cn1cc(/C=C/C(=O)Nc2ccc(F)cc2N)cn1` [C2], for which the IC50 on HDAC2 was greater than 20 µM; against HDAC3/NcoR2, 1 to 5 µM.

Regarding `Cc1nc(/C=C/C(=O)Nc2ccccc2N)co1` [A4], the IC50 against HDAC1 was greater than 20 µM; on HDAC2 (setting [2]) it was greater than 20 µM; on HDAC3/NcoR2 (setting [2]), 1 to 5 µM.

As for `Nc1ccccc1NC(=O)/C=C/c1cnn(CCOc2ccc(C(F)(F)F)cc2)c1` [B4], the IC50 was less than 1 µM on HDAC1, 1 to 5 µM against HDAC2 (setting [2]) and less than 1 µM against HDAC3/NcoR2 (setting [2]).

Consider `Cc1ncc(/C=C/C(=O)Nc2ccccc2N)s1` [A3], for which the IC50 against HDAC1 is 5 to 10 µM; on HDAC2 (setting [2]) it was 5 to 10 µM; against HDAC3/NcoR2 (setting [2]), less than 1 µM.

For the compound `CN(CCCn1cc(/C=C/C(=O)Nc2ccccc2N)cn1)c1ccccc1` [D12], the “acid stability (percent remaining after 24 hours incubation)” value in data set [1] is on record as “A (A corresponds to more than 60%)”.

For the compound `Nc1ccccc1NC(=O)/C=C/c1cnn(CCc2c[nH]c3ccccc23)c1` [D13], the IC50 against HDAC1, against HDAC2 (setting [2]) and against HDAC3/NcoR2 (setting [2]) was less than 1 µM throughout.

Consider `Cn1cnc(/C=C/C(=O)Nc2ccccc2N)c1` [A12], for which the figures for the IC50 against HDAC1, against HDAC2 (setting [2]) and against HDAC3/NcoR2 (setting [2]) were 1 to 5 µM, 5 to 10 µM and less than 1 µM, respectively.

`Nc1ccccc1NC(=O)/C=C/c1cnn(C/C=C/c2ccc(F)cc2)c1` [B2]: the half-maximal inhibitory concentration (IC50) against HDAC1 is less than 1 µM; against HDAC2 (setting [2]), 1 to 5 µM; against HDAC3/NcoR2 (setting [2]) it was less than 1 µM.

Take `CCOCc1cn2cc(/C=C/C(=O)Nc3ccccc3N)sc2n1` [E1, (E)-N-(2-aminophenyl)-3-(6-(ethoxymethyl)imidazo[2,1-b]thiazol-2-yl)acrylamide]: the half-maximal inhibitory concentration (IC50) against HDAC1 was 1 to 5 µM; against HDAC2 (setting [2]), 5 to 10 µM; on HDAC3/NcoR2 (setting [2]), less than 1 µM.

For the compound `Nc1ccccc1NC(=O)/C=C/c1cc2ccccn2n1` [A8], the IC50 at HDAC1 was less than 1 µM; on HDAC2 (setting [2]), 1 to 5 µM; on HDAC3/NcoR2 (setting [2]), less than 1 µM. For the same compound, the “acid stability (percent remaining after 24 hours incubation)” value in data set [1] was “B (B is between 40 and 60%)”.

With `Nc1ccccc1NC(=O)/C=C/c1cnn(Cc2ccc(F)cc2)c1` [D5], the results for the IC50 at HDAC1, against HDAC2 (setting [2]) and against HDAC3/NcoR2 (setting [2]) were less than 1 µM, 1 to 5 µM and less than 1 µM, respectively.

For `Nc1ccccc1NC(=O)/C=C/c1csc(C/C=C/c2ccccc2)n1` [E2, (E)-N-(2-aminophenyl)-3-(2-cinnamylthiazol-4-yl)acrylamide], the figures for the IC50 against HDAC1, against HDAC2 (setting [2]) and against HDAC3/NcoR2 (setting [2]) were less than 1 µM, 1 to 5 µM and less than 1 µM, respectively. Besides, in data set [1], the “acid stability (percent remaining after 24 hours incubation)” value is “A (A corresponds to more than 60%)”.

Regarding `Nc1ccccc1NC(=O)/C=C/c1cn2ccnc2s1` [A10], the results for the IC50 against HDAC1, against HDAC2 (setting [2]) and on HDAC3/NcoR2 (setting [2]) were 1 to 5 µM, 1 to 5 µM and less than 1 µM, respectively.

Turning to `Nc1ccccc1NC(=O)/C=C/c1cnn(CCOc2cc(F)cc(Cl)c2)c1` [B5, (E)-N-(2-aminophenyl)-3-(1-(2-(3-chloro-5-fluorophenoxy)ethyl)-1H-pyrazol-4-yl)acrylamide], the concentration for half-maximal inhibition (IC50) against HDAC1, against HDAC2 (setting [2]) and against HDAC3/NcoR2 (setting [2]) was less than 1 µM each time.

With `Nc1ccccc1NC(=O)/C=C/c1cnn(-c2ccccc2)c1` [A11], the 50% inhibitory concentration (IC50) against HDAC1 was 1 to 5 µM; against HDAC2 (setting [2]), 1 to 5 µM; on HDAC3/NcoR2 (setting [2]) it was less than 1 µM. Also, the “acid stability (percent remaining after 24 hours incubation)” value in data set [1] is “A (A corresponds to more than 60%)”.

As to `Nc1ccccc1NC(=O)c1ccc(C=C2CCN(C(=O)OCc3ccccc3)CC2)cc1` [F1], the figures for the concentration for half-maximal inhibition (IC50) at HDAC1, against HDAC2 (setting [2]) and against HDAC3/NcoR2 (setting [2]) were less than 1 µM, 1 to 5 µM and less than 1 µM, respectively. In addition, the “acid stability (percent remaining after 24 hours incubation)” value in data set [1] is “B (B is between 40 and 60%)”.

Regarding `Cn1cc(/C=C/C(=O)Nc2ccccc2N)cn1` [A2], the results for the half-inhibitory concentration (IC50) at HDAC1, against HDAC2 (setting [2]) and on HDAC3/NcoR2 (setting [2]) were 5 to 10 µM, 10 to 20 µM and less than 1 µM, respectively. Moreover, the “acid stability (percent remaining after 24 hours incubation)” value in data set [1] was “B (B is between 40 and 60%)”.

Turning to `Nc1ccccc1NC(=O)c1ccc(C=C2CN(Cc3ccc4cc[nH]c4c3)C2)c(Cl)c1` [F5, 4-((1-((1H-indol-6-yl)methyl)azetidin-3-ylidene)methyl)-N-(2-aminophenyl)-3-chlorobenzamide], the IC50 is less than 1 µM at HDAC1, 1 to 5 µM at HDAC2 (setting [2]) and less than 1 µM on HDAC3/NcoR2 (setting [2]).

For `Nc1ccccc1NC(=O)c1ccc(C=C2CN(Cc3cccnc3)C2)c(Cl)c1` [F6], the IC50 against HDAC2 (setting [2]) was in the range of 1 to 5 µM.

As for `Nc1ccccc1NC(=O)/C=C/c1cnc2ccccn12` [A6, (E)-N-(2-aminophenyl)-3-(imidazo[1,2-a]pyridin-3-yl)acrylamide], the 50% inhibitory concentration (IC50) is 5 to 10 µM at HDAC1, 5 to 10 µM against HDAC2 (setting [2]) and less than 1 µM on HDAC3/NcoR2 (setting [2]).

Regarding `Nc1cc(F)ccc1NC(=O)/C=C/c1cnn(CCOc2ccccc2)c1` [D16], the IC50 against HDAC1 is 1 to 5 µM; against HDAC2 (setting [2]), 1 to 5 µM; against HDAC3/NcoR2 (setting [2]), less than 1 µM.

Turning to `CCn1cc(/C=C/C(=O)Nc2ccccc2N)cn1` [C1], the IC50 against HDAC1 was 1 to 5 µM; at HDAC2 (setting [2]) it was 1 to 5 µM; against HDAC3/NcoR2 (setting [2]), less than 1 µM.

As for `Cc1nc(/C=C/C(=O)Nc2ccccc2N)cs1` [A1], the IC50 is 1 to 5 µM against HDAC1, 5 to 10 µM on HDAC2 (setting [2]) and less than 1 µM against HDAC3/NcoR2 (setting [2]).

The term IC50 denotes the concentration needed to halve the response being measured.

The values above are taken from patent US9908899B2 (BIOMARIN PHARMACEUTICAL INC., priority 2011, dated 2018).
